Measured values: patent US20060194837A1, “Tetrahydroisoquinoline compounds” (priority 2004, published 2006)

Experiments:
[1] = molecular target: T1, human H3 receptor (Homo sapiens, UniProt Q9Y5N1); assay: H3 receptor binding (N-[3H]-α-methylhistamine displacement); details: membranes of SK-N-MC cells expressing cloned human H3 receptor, 0.8 nM N-[3H]-α-methylhistamine, 60 min at 25° C.
T1 construct: expressed in transfected cells

[2] = molecular target: T2, Rat SERT (Rattus norvegicus, UniProt P31652); assay: Rat brain SERT binding ([3H]-citalopram displacement); details: rat brain membranes without cerebellum, 0.6 nM [3H]-citalopram, 60 min at 25° C.; read-out: Rat SERT Ki
T2 construct: A rat brain without cerebellum (Zivic Laboratories, Inc.—Pittsburgh, Pa.) was homogenized; tissue Zivic Laboratories, Inc; host or cells: rat brain without cerebellum, membranes
T2 sequence (P31652 whole entry): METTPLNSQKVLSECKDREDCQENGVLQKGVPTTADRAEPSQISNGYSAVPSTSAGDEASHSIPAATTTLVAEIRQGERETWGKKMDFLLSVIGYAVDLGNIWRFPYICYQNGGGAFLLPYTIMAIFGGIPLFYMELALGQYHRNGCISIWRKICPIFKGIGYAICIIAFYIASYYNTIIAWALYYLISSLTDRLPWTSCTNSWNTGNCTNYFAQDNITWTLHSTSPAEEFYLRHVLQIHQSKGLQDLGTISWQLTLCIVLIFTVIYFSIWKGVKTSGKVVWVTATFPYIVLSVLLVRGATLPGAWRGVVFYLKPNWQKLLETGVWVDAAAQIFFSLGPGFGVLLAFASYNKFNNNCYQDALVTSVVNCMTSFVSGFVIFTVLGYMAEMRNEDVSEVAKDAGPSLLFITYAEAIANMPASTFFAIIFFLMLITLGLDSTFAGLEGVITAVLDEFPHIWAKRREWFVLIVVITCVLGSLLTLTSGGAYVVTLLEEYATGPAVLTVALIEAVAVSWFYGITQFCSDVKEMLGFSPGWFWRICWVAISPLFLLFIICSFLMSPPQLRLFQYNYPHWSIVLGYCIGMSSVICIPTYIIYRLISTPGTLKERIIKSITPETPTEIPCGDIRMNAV
Experimental: The supernatant was removed and re-centrifuged at 15,000 rpm for 30 min. […] Membranes were incubated with 0.6 nM [^3H]-Citalopram plus/minus test compounds for 60 min at 25° C. and harvested by rapid filtration over GF/C glass fiber filters (pretreated with 0.3% polyethylenimine) followed by four washes with ice-cold buffer.

[3] = molecular target: T3, human SERT (Homo sapiens, UniProt P31645); assay: Human SERT binding (3H-citalopram displacement); details: HEK293 membranes expressing human SERT, rt 1 h
T3 construct: expressed in transfected cells; host or cells: HEK293 membranes
T3 sequence (P31645 whole entry): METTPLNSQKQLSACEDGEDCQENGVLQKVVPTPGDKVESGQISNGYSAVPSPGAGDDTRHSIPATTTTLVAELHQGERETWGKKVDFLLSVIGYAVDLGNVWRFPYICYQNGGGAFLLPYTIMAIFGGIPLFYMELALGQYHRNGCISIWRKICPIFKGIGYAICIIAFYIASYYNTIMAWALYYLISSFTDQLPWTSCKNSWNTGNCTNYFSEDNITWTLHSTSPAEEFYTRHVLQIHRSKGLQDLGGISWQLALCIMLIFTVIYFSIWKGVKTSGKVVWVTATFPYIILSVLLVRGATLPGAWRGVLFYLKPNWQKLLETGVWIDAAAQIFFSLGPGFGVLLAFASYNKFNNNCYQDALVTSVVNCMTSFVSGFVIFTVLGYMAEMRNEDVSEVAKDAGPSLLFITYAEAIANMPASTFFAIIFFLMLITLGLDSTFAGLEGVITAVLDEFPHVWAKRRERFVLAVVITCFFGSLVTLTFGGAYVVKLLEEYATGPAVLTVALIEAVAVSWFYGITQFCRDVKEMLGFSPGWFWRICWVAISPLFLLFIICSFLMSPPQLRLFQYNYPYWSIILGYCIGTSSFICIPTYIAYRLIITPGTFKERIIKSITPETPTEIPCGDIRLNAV
Experimental: Homogenized HEK293 (Human Embryonic Kidney) membranes expressing the human SERT were incubated with ^3H-citalopram (SERT) at rt for 1 h in 50 mM Tris, 120 mM NaCl, 5 mM KCl (pH 7.4). […] The membranes were washed and the radioactivity was counted as above.

T1 sequence (Q9Y5N1 whole entry): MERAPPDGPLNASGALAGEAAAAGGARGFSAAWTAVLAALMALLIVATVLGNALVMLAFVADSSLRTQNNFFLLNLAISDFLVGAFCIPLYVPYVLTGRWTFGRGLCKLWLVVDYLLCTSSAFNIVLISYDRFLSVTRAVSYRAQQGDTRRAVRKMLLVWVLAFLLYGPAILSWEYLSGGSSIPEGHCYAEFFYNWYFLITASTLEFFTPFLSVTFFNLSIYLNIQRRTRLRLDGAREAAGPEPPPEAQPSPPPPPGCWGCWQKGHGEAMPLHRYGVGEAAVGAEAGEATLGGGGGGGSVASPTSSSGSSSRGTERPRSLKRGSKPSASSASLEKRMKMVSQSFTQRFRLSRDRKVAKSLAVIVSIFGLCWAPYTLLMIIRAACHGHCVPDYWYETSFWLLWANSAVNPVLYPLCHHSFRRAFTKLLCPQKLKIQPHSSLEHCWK

SMILES	Ki [1]	Ki [2]	Ki [3]
CN1Cc2cc(OCCCN3CCC(F)CC3)ccc2C(c2ccccc2)C1 (stereo not drawn) [Example 124, 7-[3-(4-Fluoro-piperidin-1-yl)-propoxy]-2-methyl-4-phenyl-1,2,3,4-tetrahydro-isoquinoline]	3 nM	13 nM	56 nM
COc1ccc(C2CN(C)Cc3cc(OCCCN4CCCCC4CCO)ccc32)cc1 (stereo not drawn) [Example 36, 2-(1-{3-[4-(4-Methoxy-phenyl)-2-methyl-1,2,3,4-tetrahydro-isoquinolin-7-yloxy]-propyl}-piperidin-2-yl)-ethanol]	7 nM	2 nM	3 nM
CN1Cc2cc(OCCCN3CCC(F)CC3)ccc2C(c2cccc(Cl)c2)C1 (stereo not drawn) [Example 46, 4-(3-Chloro-phenyl)-7-[3-(4-fluoro-piperidin-1-yl)-propoxy]-2-methyl-1,2,3,4-tetrahydro-isoquinoline]	3 nM	14 nM	26 nM
CCCN1CCC(COc2ccc3c(c2)CN(C)CC3c2ccc(SC)cc2)CC1 (stereo not drawn) [Example 109, 2-Methyl-4-(4-methylsulfanyl-phenyl)-7-(1-propyl-piperidin-4-ylmethoxy)-1,2,3,4-tetrahydro-isoquinoline]	8 nM	10 nM	3 nM
CCOC(=O)N1CCN(CCCOc2ccc3c(c2)CN(C)CC3c2ccc(OC)cc2)CC1 (stereo not drawn) [Example 12, 4-{3-[4-(4-Methoxy-phenyl)-2-methyl-1,2,3,4-tetrahydro-isoquinolin-7-yloxy]-propyl}-piperazine-1-carboxylic acid ethyl ester]	59 nM	6 nM	16 nM
CSc1ccc(C2CN(C)Cc3cc(OC4CCN(C5CC5)CC4)ccc32)cc1 (stereo not drawn) [Example 247, 7-(1-Cyclopropyl-piperidin-4-yloxy)-2-methyl-4-(4-methylsulfanyl-phenyl)-1,2,3,4-tetrahydro-isoquinoline]	2 nM	5 nM	7 nM
COc1ccc(C2CN(C)Cc3cc(OC4CCN(CCF)CC4)ccc32)cc1 (stereo not drawn) [Example 152, 7-[1-(2-Fluoro-ethyl)-piperidin-4-yloxy]-4-(4-methoxy-phenyl)-2-methyl-1,2,3,4-tetrahydro-isoquinoline]	5 nM	6 nM	11 nM
CSc1ccc(C2CN(C)Cc3cc(OC4CCN(C)CC4)ccc32)cc1 (stereo not drawn) [Example 243, 2-Methyl-7-(1-methyl-piperidin-4-yloxy)-4-(4-methylsulfanyl-phenyl)-1,2,3,4-tetrahydro-isoquinoline]	22 nM	5 nM	6 nM
COc1ccc(C2CN(C)Cc3cc(OCCCN4CCN(c5ccncc5)CC4)ccc32)cc1 (stereo not drawn) [Example 204, 4-(4-Methoxy-phenyl)-2-methyl-7-[3-(4-pyridin-4-yl-piperazin-1-yl)-propoxy]-1,2,3,4-tetrahydro-isoquinoline]	2 nM	10 nM	5 nM
COc1ccc(C2CN(C)Cc3cc(OCCCN4CCC[C@@H]4CO)ccc32)cc1 (stereo partly drawn) [Example 30, (1-{3-[4-(4-Methoxy-phenyl)-2-methyl-1,2,3,4-tetrahydro-isoquinolin-7-yloxy]-propyl}-pyrrolidin-(2R)-yl)-methanol]	3 nM	2 nM	2 nM
COc1ccc(C2CN(C)Cc3cc(OCCCN4CCN(C(C)C)CC4)ccc32)cc1 (stereo not drawn) [Example 199, 7-[3-(4-Isopropyl-piperazin-1-yl)-propoxy]-4-(4-methoxy-phenyl)-2-methyl-1,2,3,4-tetrahydro-isoquinoline]	8 nM	2 nM	2 nM
CN1Cc2cc(OCCCN3CCC(F)CC3)ccc2C(c2ccc(Cl)cc2)C1 (stereo not drawn) [Example 47, 4-(4-Chloro-phenyl)-7-[3-(4-fluoro-piperidin-1-yl)-propoxy]-2-methyl-1,2,3,4-tetrahydro-isoquinoline]	10 nM	27 nM	11 nM
CCN1Cc2cc(OCCCN3CCCCC3)ccc2C(c2ccc(OC)cc2)C1 (stereo not drawn) [Example 66, 2-Ethyl-4-(4-methoxy-phenyl)-7-(3-piperidin-1-yl-propoxy)-1,2,3,4-tetrahydro-isoquinoline]	1 nM	5 nM	4 nM
COc1ccc(C2CN(C)Cc3cc(OCCCN4CCCC(F)C4)ccc32)cc1 (stereo not drawn) [Example 39, 7-[3-(3-Fluoro-piperidin-1-yl)-propoxy]-4-(4-methoxy-phenyl)-2-methyl-1,2,3,4-tetrahydro-isoquinoline]	3 nM	3 nM	3 nM
COc1ccc(C2CN(C)Cc3cc(CCCCN4CCC(F)(F)CC4)ccc32)cc1 (stereo not drawn) [Example 280, 7-[4-(4,4-Difluoro-piperidin-1-yl)-butyl]-4-(4-methoxy-phenyl)-2-methyl-1,2,3,4-tetrahydro-isoquinoline]	96 nM	4 nM	13 nM
COc1ccc(C2CN(C)Cc3cc(OCCCN4CCC(C#N)CC4)ccc32)cc1 (single isomer, unassigned) [Example 37A, 1-{3-[4-(4-Methoxy-phenyl)-2-methyl-1,2,3,4-tetrahydro-isoquinolin-7-yloxy]-propyl}-piperidine-4-carbonitrile]	89 nM	9 nM	13 nM
COc1ccc(C2CN(C)Cc3cc(OC4CCN(C5CCOCC5)CC4)ccc32)cc1 (stereo not drawn) [Example 121, 4-(4-Methoxy-phenyl)-2-methyl-7-[1-(tetrahydro-pyran-4-yl)-piperidin-4-yloxy]-1,2,3,4-tetrahydro-isoquinoline]	2 nM	10 nM	6 nM
COc1ccc(C2CN(C)Cc3cc(OCCCN4CCCCC4CO)ccc32)cc1 (stereo not drawn) [Example 24, (1-{3-[4-(4-Methoxy-phenyl)-2-methyl-1,2,3,4-tetrahydro-isoquinolin-7-yloxy]-propyl}-piperidin-2-yl)-methanol]	2 nM	2 nM	3 nM
CSc1ccc(C2CN(C)Cc3cc(OCC4CCN(C(C)C)CC4)ccc32)cc1 (stereo not drawn) [Example 103, 7-(1-Isopropyl-piperidin-4-ylmethoxy)-2-methyl-4-(4-methylsulfanyl-phenyl)-1,2,3,4-tetrahydro-isoquinoline]	7 nM	8 nM	3 nM
CCCN1CCC(COc2ccc3c(c2)CN(C)CC3c2ccc(OC)c(F)c2)CC1 (stereo not drawn) [Example 112, 4-(3-Fluoro-4-methoxy-phenyl)-2-methyl-7-(1-propyl-piperidin-4-ylmethoxy)-1,2,3,4-tetrahydro-isoquinoline]	9 nM	5 nM	6 nM
COc1ccc(C2CN(C)Cc3cc(OCCCN4CCN(C(C)=O)CC4)ccc32)cc1 (stereo not drawn) [Example 2, 1-(4-{3-[4-(4-Methoxy-phenyl)-2-methyl-1,2,3,4-tetrahydro-isoquinolin-7-yloxy]-propyl}-piperazin-1-yl)-ethanone]	70 nM	13 nM	56 nM
COc1ccc(C2CN(C)Cc3cc(C#CCCN4CCN(C(C)C)CC4)ccc32)cc1 (stereo not drawn) [Example 278, 7-[4-(4-Isopropyl-piperazin-1-yl)-but-1-ynyl]-4-(4-methoxy-phenyl)-2-methyl-1,2,3,4-tetrahydro-isoquinoline]	315 nM	5 nM	9 nM
COc1ccc(C2CN(C)Cc3cc(OCCCN4CC[C@@H](O)C4)ccc32)cc1 (stereo partly drawn) [Example 31, 1-{3-[4-(4-Methoxy-phenyl)-2-methyl-1,2,3,4-tetrahydro-isoquinolin-7-yloxy]-propyl}-(R)-pyrrolidin-3-ol]	2 nM	2 nM	3 nM
COc1ccc(C2CN(C)Cc3cc(OCCCN4CCN(C(=O)C(C)C)CC4)ccc32)cc1 (stereo not drawn) [Example 5, 1-(4-{3-[4-(4-Methoxy-phenyl)-2-methyl-1,2,3,4-tetrahydro-isoquinolin-7-yloxy]-propyl}-piperazin-1-yl)-2-methyl-propan-1-one]	594 nM	27 nM	18 nM
COc1ccc(C2CN(C(C)C)Cc3cc(OCCCN4CCCCC4)ccc32)cc1 (stereo not drawn) [Example 68, 2-Isopropyl-4-(4-methoxy-phenyl)-7-(3-piperidin-1-yl-propoxy)-1,2,3,4-tetrahydro-isoquinoline]	1 nM	22 nM	89 nM
COc1ccc(C2CN(C)Cc3cc(OCCCN4CCC(CO)CC4)ccc32)cc1 (stereo not drawn) [Example 22, (1-{3-[4-(4-Methoxy-phenyl)-2-methyl-1,2,3,4-tetrahydro-isoquinolin-7-yloxy]-propyl}-piperidin-4-yl)-methanol]	11 nM	3 nM	5 nM
CCN(CCCOc1ccc2c(c1)CN(C)CC2c1ccc(OC)cc1)CCOC (stereo not drawn) [Example 40, Ethyl-(2-methoxy-ethyl)-{3-[4-(4-methoxy-phenyl)-2-methyl-1,2,3,4-tetrahydro-isoquinolin-7-yloxy]-propyl}-amine]	20 nM	9 nM	8 nM
COc1ccc(C2CN(C)Cc3cc(C#CCCN4CCSCC4)ccc32)cc1 (stereo not drawn) [Example 277, 4-(4-Methoxy-phenyl)-2-methyl-7-(4-thiomorpholin-4-yl-but-1-ynyl)-1,2,3,4-tetrahydro-isoquinoline]	45 nM	37 nM	13 nM
